According to patent US4558052A, “10-Bromosandwicine, 10-bromoisosandwicine, pharmaceutical compositions thereof, and methods of treating heart rhythm disorders with them” (Kali-Chemie Pharma GmbH, priority 1979, dated 1985):
Entries after “also recorded” stand apart in the source; their conditions may differ. Counter-ions that a name gives are not always drawn.

Key:
[1] = words, known from literature; cited from earlier work
male NMRI-mice [2] = experiment: Acute toxicity LD50 i.p. and p.o. in mice; format: in vivo; conditions: probit analysis
Protocol: A. Determination of acute toxicity LD50 i.p. and p.o. in mice.
The acute toxicity of the compounds is determined in male NMRI-mice (body weight range 18-22 g) after i.p. or p.o. administration. The LD50 values are calculated by means of electronic data processing through a probit analysis.

male NMRI-mice [3] = experiment: Minimum symptom dose at which any undesirable side effects are detected (Campbell and Richter); format: in vivo; conditions: dose causing changes in behaviour in 2 out of 3 mice
Protocol: B. Determination of minimum symptom dose at which any undesirable side effects are detected.
The minimum symptom dose is determined in male NMRI-mice (body weight range 18-22 g) according to the procedure of Campbell and Richter (see D. E. S. Campbell and W. Richter. Acta Pharmacol. Toxicol. 25 (1967) pp. 345-363). The minimum symptom dose is defined as that dose in μmol/kg which after i.p. administration causes changes in behaviour in 2 out of 3 mice. The minimum symptom dose is a measure for evaluation of undesirable side effects.

[4] = test system: cardiac extra-systoles induced by aconitine; experiment: Antiarrhythmic activity against cardiac extra-systoles induced by aconitine in rats (Raschack); format: in vivo; conditions: i.v., equitoxic dose about 5% of the i.p. LD50 in mice, aconitine 5 μg/kg/min i.v., vs control group
Protocol: C. Determination of antiarrhythmic activity against cardiac extra-systoles induced by aconitine in rats.
The protective effects of the compounds against extra-systoles (ES) caused by aconitine infusion in rats are determined according to the method of Raschack (Arzneimittelforsch. 25 (1975) 639-641).
Male Wistar rats having a body weight of 320-400 g are anesthetized by i.p. application of 1.25 g/kg urethane. The animals are placed on their backs and their electrocardiogram is registered every 30 seconds during the test. The animals are given an i.v. aconitine infusion at an infusion rate of 5 μg/kg/min of aconitine with an infusion volume of 0.1 ml/minute. 5 Minutes prior to starting the aconitine infusion the animals are given a solution of the test compound in an amount of 2 ml/kg bodyweight of isotonic NaCl solution by i.v. infusion over a period of about 2.5 minutes. A control group of animals is given only the vehicle solution. The infusion time until occurence of extra-systoles is determined.
Antiarrhythmically active test compounds lead to a retardation of the onset of aconitine-induced cardiac extra-systoles in the treated animals as compared with the group of control animals. The degree of prolongation of aconitine-infusion time and thus of increase of administered amount of aconitine up to which the animals are protected against the aconitine induced extra-systoles is an indication of the degree of antiarrhythmic activity of the test compounds.
Equitoxic doses of the test compounds are used namely doses which correspond to about 5% of the i.p. LD50 of the compound in mice. The % increase in aconitine infusion time (that is % increase of administered amount of aconitine) until onset of the extra-systoles in the treated animals as compared with the control group is determined.

[5] = Antiarrhythmic activity in a standard pharmacological in vivo test procedure; conditions: words

CC[C@@H]1[C@H]2C[C@H]3[C@@H]4N(C)c5ccccc5[C@]45C[C@@H](C2[C@H]5O)N3[C@H]1O (stereo partly drawn) [isoajmaline]
cardiac / antiarrhythmic activities [1]: cardiac activities including antiarrhythmic activities

CCC1C2CC3C4N(C)c5ccccc5C45CC(C2C5O)N3C1O (stereo not drawn) [Isosandwicine hydrogen fumarate]
Toxicity LD50 i.p. (male NMRI-mice [2]): ~ 56 μmol/kg | Toxicity LD50 p.o. (male NMRI-mice [2]): 471 µmol/kg | Minimum symptom dose i.p. (male NMRI-mice [3]): 10 µmol/kg | ES-inhibiting effect (result in words) [4]: not significant

CCC1C2CC3C4N(C)c5ccccc5C45CC(C2C5O)N3C1O (stereo not drawn) [isosandwicine]
antiarrhythmic activity [5]: no significant antiarrhythmic effects; also recorded: no significant antiarrhythmic activities

CCC1C2CC3C4N(C)c5ccc(Br)cc5C45CC(C2C5O)N3C1O (stereo not drawn) [10-bromosandwicine hydrogen tartrate, 10-bromosandwicine hydrogentartrate]
Toxicity LD50 i.p. (male NMRI-mice [2]): 307 µmol/kg | Toxicity LD50 p.o. (male NMRI-mice [2]): 2200 µmol/kg | Minimum symptom dose i.p. (male NMRI-mice [3]): 92 µmol/kg | Antiarrhythmic activity, ES-inhibiting effect: % prolongation of aconitine infusion time until onset of extra-systoles [4]: 25%

CCC1C2CC3C4N(C)c5ccc(Br)cc5C45CC(C2C5O)N3C1O (stereo not drawn) [10-bromoisosandwicine hydrogen tartrate, 10-bromoisosandwicinium hydrogentartrate]
Toxicity LD50 i.p. (male NMRI-mice [2]): 25 µmol/kg | Toxicity LD50 p.o. (male NMRI-mice [2]): 65 µmol/kg | Minimum symptom dose i.p. (male NMRI-mice [3]): 3 µmol/kg | Antiarrhythmic activity, ES-inhibiting effect: % prolongation of aconitine infusion time until onset of extra-systoles [4]: 25%

CCC1C2CC3C4N(C)c5ccc(Br)cc5C45CC(C2C5O)N3C1O (stereo not drawn) [10-bromoajmaline]
cardiac / antiarrhythmic activities [1]: cardiac activities

CCC1C2CC3C4N(C)c5ccccc5C45CC(C2C5O)N3C1O (stereo not drawn) [Sandwicine hydrogen tartrate]
Toxicity LD50 i.p. (male NMRI-mice [2]): ~ 325 μmol/kg | Toxicity LD50 p.o. (male NMRI-mice [2]): 1530 µmol/kg | Minimum symptom dose i.p. (male NMRI-mice [3]): 58 µmol/kg | ES-inhibiting effect (result in words) [4]: not significant

CC[C@H]1[C@@H]2C[C@H]3[C@@H]4N(C)c5ccccc5[C@]45C[C@@H]([C@H]2[C@H]5O)N3[C@@H]1O [Ajmaline]
cardiac / antiarrhythmic activities [1]: cardiac activities including antiarrhythmic activities

CCC1C2CC3C4N(C)c5ccccc5C45CC(C2C5O)N3C1O (stereo not drawn) [sandwicine, Sandwicine]
antiarrhythmic activity [5]: no significant antiarrhythmic effects; also recorded: no significant antiarrhythmic activities
